Experiments:
[1] = tested on: Staphylococcus carnosus TM 300; test: Minimal inhibitory concentration (MIC) determination; conditions: incubation 18 ± 2 h, chemically synthesized peptides
Experimental: (§2) Die antimikrobielle Aktivität der erfindungsgemäßen Peptide wurde unter Anwendung der Bestimmung der minimalen Hemmstoffkonzentration (MIC) gegen verschiedene Keime, wie Gram-positive und Gram-negative Bakterien und Hefen, untersucht. Die minimale Hemmstoffkonzentration bezeichnet die Peptidkonzentration, die minimal erforderlich ist, um das Wachstum von Mikroorganismen nach einer Inkubationszeit von 18 ± 2 h vollständig zu hemmen.

[2] = tested on: Pseudomonas aeruginosa clinical isolate; test: as above; conditions: incubation 18 ± 2 h, chemically synthesized peptides
Experimental: as §2

E. coli = test: Radial diffusion inhibition test of HPLC fractions; assay type: cell-based, Escherichia coli; conditions: pure peptide in purified HPLC fraction from tissue extract; E. coli in agarose, 37 °C, 16 h
Excerpt: (§1) Für die Reinigung von antimikrobiellen Peptiden aus Plazentaextrakt können verschiedene HPLC Trennverfahren kombiniert werden, um eine möglichst reine Darstellung über eine optimale Trennung zu erzielen und inaktive, unerwünschte Bestandteile abzutrennen. Die jeweiligen Proben, die nach jedem Trennungsschritt entstehen, werden auf ihre antimikrobielle Aktivität gegen Escherichla coli mit Hilfe des Radial-DifFusions-Hemmtests untersucht (siehe Beispiel 3). Notwendig für die Reinigung ist die Kombination von mindestens zwei Reverse Phase Chromatographieschritten und der Einsatz einer Kationenaustausch-HPLC-Trennung. In dem Biotest sollte die jeweilige Probe salzarm eingesetzt werden, um ein möglichst optimales Screeningergebnis zu erhalten.
as §1, with “Thymusextrakt” for “Plazentaextrakt”, “Escherichia” for “Escherichla”, “Radial-Diffusions-Hemmtests” for “Radial-DifFusions-Hemmtests”, “2). Empfehlenswert” for “3). Notwendig”, “In dem Biotest sollte die jeweilige Probe salzarm eingesetzt werden, um ein möglichst optimales Screeningergebnis zu erhalten.” left out

[3] = tested on: Bacillus subtilis ATCC 6051; test: Minimal inhibitory concentration (MIC) determination; conditions: incubation 18 ± 2 h, chemically synthesized peptides
Experimental: as §2

[4] = tested on: Micrococcus luteus ATCC 9341; test: as above; conditions: incubation 18 ± 2 h, chemically synthesized peptides
Experimental: as §2

[5] = tested on: Escherichia coli BL21 (DE3); test: as above; conditions: incubation 18 ± 2 h, chemically synthesized peptides
Experimental: as §2

[6] = tested on: Staphylococcus aureus ATTC 25923; test: as above; conditions: incubation 18 ± 2 h, chemically synthesized peptides
Excerpt: (§3) Dabei werden als Testmikroorganismen entweder Staphylococcus aureus oder Escherichia coli verwendet, je nachdem, bei welchem Mikroorganismus das Peptid bessere Wirksamkeit hat. Die Bakterien sind wie folgt charakterisiert: • Staphylococcous aureus: Gram-positive Kokken, ATCC 25923 • Escherichia coll: Gram-negative Stäbchen, ATCC 25922
(§4) Die antimikrobielle Aktivität der erfindungsgemäßen Peptide wurde unter Anwendung der Bestimmung der minimalen Hemmstoffkonzentration (MIC) gegen verschiedene Keime, wie Gram-positive und Gram-negative Bakterien und Hefen, untersucht. Die minimale Hemmstoffkonzentration bezeichnet die Peptidkonzentration, die minimal erforderlich ist, um das Wachstum von Mikroorganismen nach einer Inkubationszeit von 18 ± 2 h vollständig zu hemmen. Diese Quantifizierung der antimikrobiellen Aktivität ist mit chemisch synthetisierten Peptiden (Peptidsequenzen 1-5) gegen nicht pathogene sowie human pathogene Erreger durchgeführt worden.

[7] = tested on: Escherichia coli ATTC 25922; test: as above; conditions: incubation 18 ± 2 h, chemically synthesized peptides
Excerpt: as §3, §4

[8] = tested on: Klebsiella pneumoniae ATCC 10031; test: as above; conditions: incubation 18 ± 2 h, chemically synthesized peptides
Experimental: as §2

[9] = tested on: Saccharomyces cerevisiae ATCC 9763; test: as above; conditions: incubation 18 ± 2 h, chemically synthesized peptides
Experimental: as §2

Row | Substance | minimale Hemmkonzentration (MIC) [1] | minimale Hemmkonzentration (MIC) [2] | antimikrobielle Aktivität (E. coli) | minimale Hemmkonzentration (MIC) [3] | minimale Hemmkonzentration (MIC) [4] | minimale Hemmkonzentration (MIC) [5] | minimale Hemmkonzentration (MIC) [6] | minimale Hemmkonzentration (MIC) [7] | minimale Hemmkonzentration (MIC) [8] | minimale Hemmkonzentration (MIC) [9]
1 | hHEM-g-130-146 [Peptide 1] | 100 µg/mL | > 200 µg/mL | antimikrobiell wirksame | 100 µg/mL | 200 µg/mL | 100 µg/mL | 200 µg/mL | 200 µg/mL | 300 µg/mL | 100 µg/mL
2 | hGAPDH-1-31 [Peptide 2] | 12.5 µg/mL | 31.25 µg/mL | antimikrobiell wirksame | 7.8 µg/mL | 31.25 µg/mL | 7.8 µg/mL |  |  |  | 100 µg/mL
